The text below walks through data of patent US7704943B2, “Transglutaminase for inhibiting angiogenesis” (Aston University, priority 2000, dated 2010).

One assay deals with ECV304 cells. The assay can be described thus: in vitro angiogenesis/tubulogenesis model, ECV304 cells co-cultured with C378 fibroblasts. It counts as cell-based, human. From the text:
An in vitro system of angiogenesis/tubulogenesis was developed to evaluate the efficacy of TGase administration on angiogenesis. […] In the model cell system described below, ECV304 cells were co-cultured with the primary human dermal fibroblast cell line C378 (isolated from human foreskin), which provides the appropriate biochemical information to stimulate the differentiation of ECV304 to form capillary-like structures.
ECV304 cell lines S3 (a neomycin resistant transfected control cell line phenotypically similar to wild type cells) and B4 (a tTGase antisense transfected cell line [Jones, R. A., et al., 1997, J. Cell Sci. 110, 2461-2472]) and C378 were routinely cultured in Dulbecco's Modified Eagles Media (DMEM) supplemented with 2 mM glutamine and 10% (v/v) foetal calf serum (FCS). Cells were harvested by exposure to 0.25% (w/v) bovine trypsin in phosphate buffered saline (PBS) pH 7.4, and collected cells were washed in normal culture media, counted and seeded into the appropriate tissue culture vessel. Standard angiogenesis experiments were performed in 12-well cell culture plates, and 2×10^4 ECV304 cells and 2×10^4 C378 cells were seeded into 1 ml of normal growth media. For immunochemical staining experiment, 2×10^3 cells of each cell type were seeded into […] of growth medium in 8-well glass chamber slides. Co-cultures were incubated at 37° C. in a humidified atmosphere containing 5% (V/V) CO2, and tubules were allowed to develop spontaneously over a 14-day period, with regular changes of growth media every 72 hours.
For cultures treated with purified tTGase, a dose response with 1, 10 and 50 μg […] liver transglutaminase (gplTGase) was performed with two separate dosing regimes. gplTGase was activated by pre-incubation with 10 mM DTT on ice for one hour prior to its addition to cultures. The highest amount of DTT present in the cultures was 0.5 mm for the 50 μg gplTGase treatment, and control cultures were treated with DTT accordingly. In some experiments, cultures were treated with two administrations of exogenous enzyme on day 1 and day 4 of the experiment. Further studies extended the dose regime to include five gplTGase treatments, on days 1, 4, 7, 10 and 13.
Non-specific protein binding was blocked by incubating fixed cells with 300 μl of 3% (w/v) bovine serum albumin (BSA) overnight at 4° C. Blocked plates were then incubated with the primary antisera (see table 5), diluted in the above buffer, for 2 hours at 37° C. with gentle shaking. Next, plates were washed three times and incubated with the appropriate species-specific secondary antibody (see table 5) conjugated to Horseradish peroxidase (HRP) for 2 hours at 37° C. with gentle shaking. […]

Another assay has as its system rat dermal wound. Conditions: addition of exogenous enzyme, rat dermal wound healing; cited from earlier work.

`Cc1ccc(C(=O)Nc2ccc(S(=O)(=O)O)c3cc(S(=O)(=O)O)cc(S(=O)(=O)O)c23)cc1NC(=O)c1cccc(NC(=O)Nc2cccc(C(=O)Nc3cc(C(=O)Nc4ccc(S(=O)(=O)O)c5cc(S(=O)(=O)O)cc(S(=O)(=O)O)c45)ccc3C)c2)c1` [suramin]: in the assay with ECV304 cells (10 μM, compared to untreated cells), the “microtubule formation (collagen type I, UEA-1 and tTGase staining)” value was “significantly reduced”. Besides, the microtubule formation result in the assay on ECV304 cells (100 μM) and in the assay on ECV304 cells (200 μM) was “completely eradicated” in each case. In addition, the “angiogenesis (FIG. 4, tubules stained for collagen type I, UEA-1, tTGase)” value in the assay on ECV304 cells (standard angiogenesis inhibitor, positive control) is listed as “inhibition of angiogenesis”.

B1: recombinant tTGase: exogenous recombinant tissue transglutaminase used in the study of Haroon et al 1999 (protein, UniProt P21980 2-687, looked up)
Protein-glutamine …: AEELVLERCDLELETNGRDHHTADLCREKLVVRRGQPFWLTLHFEGRNYEASVDSLTFSVVTGPAPSQEAGTKARFPLRDAVEEGDWTATVVDQQDCTLSLQLTTPANAPIGLYRLSLEASTGYQGSSFVLGHFILLFNAWCPADAVYLDSEEERQEYVLTQQGFIYQGSAKFIKNIPWNFGQFEDGILDICLILLDVNPKFLKNAGRDCSRRSSPVYVGRVVSGMVNCNDDQGVLLGRWDNNYGDGVSPMSWIGSVDILRRWKNHGCQRVKYGQCWVFAAVACTVLRCLGIPTRVVTNYNSAHDQNSNLLIEYFRNEFGEIQGDKSEMIWNFHCWVESWMTRPDLQPGYEGWQALDPTPQEKSEGTYCCGPVPVRAIKEGDLSTKYDAPFVFAEVNADVVDWIQQDDGSVHKSINRSLIVGLKISTKSVGRDEREDITHTYKYPEGSSEEREAFTRANHLNKLAEKEETGMAMRIRVGQSMNMGSDFDVFAHITNNTAEEYVCRLLLCARTVSYNGILGPECGTKYLLNLNLEPFSEKSVPLCILYEKYRDCLTESNLIKVRALLVEPVINSYLLAERDLYLENPEIKIRILGEPKQKRKLVAEVSLQNPLPVALEGCTFTVEGAGLTEEQKTVEIPDPVEAGEEVKVRMDLLPLHMGLHKLVVNFESDKLKAVKGFRNVIIGPA
As to B1, the vessel length density result in the assay on rat dermal wound is “increase in vessel length density”.
